Data published in article PMC4046646 (Molecular psychiatry, 2013).

What was measured:
[1] = molecular target: LeuT (Aquifex aeolicus, UniProt O67854); experiment: DEER spectroscopy; assay type: binding; settings: 200 mM NaCl; 4-fold molar excess of Leu over LeuT
[2] = molecular target: LeuT (Aquifex aeolicus, UniProt O67854, A289M, form not given); experiment: DEER spectroscopy; assay type: binding; settings: 200 mM NaCl; 4-fold molar excess of Leu over LeuT

SMILES: CC(C)C[C@H](N)C(=O)O [Leu]
- DEER spectroscopy (Q-band, 83 K), ligand-induced conformational change [1]: Subsequent Leu binding resets the closed EL4 conformation in the occluded conformation of the transporter
- DEER spectroscopy (Q-band, 83 K), ligand-induced conformational change [2]: LeuT A289M with Na^+ and Leu bound in the vestibule has a destabilized bound structure
